Measurements: ChEMBL document CHEMBL1201862, “PubChem BioAssay data set” (2004)
Values belong to the compound of their own block, whether it stands above or below them. Active and inactive are the calls of the source. Cut-off read from the data, not from the text of the source, for most assays here: actives have a measured EC50 and inactives only a lower limit.

Legend:
[1] = fluconazole-exposed Candida albicans growth modulators – fluorescence, retest, confirmation (AID 2467); type: functional, cell-based
[2] = NIH-3T3 fibroblast cytotoxicity, dose response, cytotoxicity control, cell-based, fluorescence, Alamar Blue, secondary assay (AID 2327); type: functional;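 note: NIH-3T3 mouse fibroblasts cultured with fluconazole at 8 µg/mL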
[3] = Dd2 parasite growth inhibition in erythrocytes – SYBR Green, dry powder samples, set 9, dose response (AID 1159568); type: functional, cell-based
Fatty acid synthase [4] = biological target: T1, Fatty acid synthase (Homo sapiens, UniProt P49327); test: inhibition of human FAS-TE enzyme activity – biochemical, kinetic fluorescence intensity, dose response (AID 624326); type: functional;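 note: rate of fluorescence rise from hydrolysis of a fluorogenic O-methyl fluorescein ester substrate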
T1 sequence (P49327 whole entry): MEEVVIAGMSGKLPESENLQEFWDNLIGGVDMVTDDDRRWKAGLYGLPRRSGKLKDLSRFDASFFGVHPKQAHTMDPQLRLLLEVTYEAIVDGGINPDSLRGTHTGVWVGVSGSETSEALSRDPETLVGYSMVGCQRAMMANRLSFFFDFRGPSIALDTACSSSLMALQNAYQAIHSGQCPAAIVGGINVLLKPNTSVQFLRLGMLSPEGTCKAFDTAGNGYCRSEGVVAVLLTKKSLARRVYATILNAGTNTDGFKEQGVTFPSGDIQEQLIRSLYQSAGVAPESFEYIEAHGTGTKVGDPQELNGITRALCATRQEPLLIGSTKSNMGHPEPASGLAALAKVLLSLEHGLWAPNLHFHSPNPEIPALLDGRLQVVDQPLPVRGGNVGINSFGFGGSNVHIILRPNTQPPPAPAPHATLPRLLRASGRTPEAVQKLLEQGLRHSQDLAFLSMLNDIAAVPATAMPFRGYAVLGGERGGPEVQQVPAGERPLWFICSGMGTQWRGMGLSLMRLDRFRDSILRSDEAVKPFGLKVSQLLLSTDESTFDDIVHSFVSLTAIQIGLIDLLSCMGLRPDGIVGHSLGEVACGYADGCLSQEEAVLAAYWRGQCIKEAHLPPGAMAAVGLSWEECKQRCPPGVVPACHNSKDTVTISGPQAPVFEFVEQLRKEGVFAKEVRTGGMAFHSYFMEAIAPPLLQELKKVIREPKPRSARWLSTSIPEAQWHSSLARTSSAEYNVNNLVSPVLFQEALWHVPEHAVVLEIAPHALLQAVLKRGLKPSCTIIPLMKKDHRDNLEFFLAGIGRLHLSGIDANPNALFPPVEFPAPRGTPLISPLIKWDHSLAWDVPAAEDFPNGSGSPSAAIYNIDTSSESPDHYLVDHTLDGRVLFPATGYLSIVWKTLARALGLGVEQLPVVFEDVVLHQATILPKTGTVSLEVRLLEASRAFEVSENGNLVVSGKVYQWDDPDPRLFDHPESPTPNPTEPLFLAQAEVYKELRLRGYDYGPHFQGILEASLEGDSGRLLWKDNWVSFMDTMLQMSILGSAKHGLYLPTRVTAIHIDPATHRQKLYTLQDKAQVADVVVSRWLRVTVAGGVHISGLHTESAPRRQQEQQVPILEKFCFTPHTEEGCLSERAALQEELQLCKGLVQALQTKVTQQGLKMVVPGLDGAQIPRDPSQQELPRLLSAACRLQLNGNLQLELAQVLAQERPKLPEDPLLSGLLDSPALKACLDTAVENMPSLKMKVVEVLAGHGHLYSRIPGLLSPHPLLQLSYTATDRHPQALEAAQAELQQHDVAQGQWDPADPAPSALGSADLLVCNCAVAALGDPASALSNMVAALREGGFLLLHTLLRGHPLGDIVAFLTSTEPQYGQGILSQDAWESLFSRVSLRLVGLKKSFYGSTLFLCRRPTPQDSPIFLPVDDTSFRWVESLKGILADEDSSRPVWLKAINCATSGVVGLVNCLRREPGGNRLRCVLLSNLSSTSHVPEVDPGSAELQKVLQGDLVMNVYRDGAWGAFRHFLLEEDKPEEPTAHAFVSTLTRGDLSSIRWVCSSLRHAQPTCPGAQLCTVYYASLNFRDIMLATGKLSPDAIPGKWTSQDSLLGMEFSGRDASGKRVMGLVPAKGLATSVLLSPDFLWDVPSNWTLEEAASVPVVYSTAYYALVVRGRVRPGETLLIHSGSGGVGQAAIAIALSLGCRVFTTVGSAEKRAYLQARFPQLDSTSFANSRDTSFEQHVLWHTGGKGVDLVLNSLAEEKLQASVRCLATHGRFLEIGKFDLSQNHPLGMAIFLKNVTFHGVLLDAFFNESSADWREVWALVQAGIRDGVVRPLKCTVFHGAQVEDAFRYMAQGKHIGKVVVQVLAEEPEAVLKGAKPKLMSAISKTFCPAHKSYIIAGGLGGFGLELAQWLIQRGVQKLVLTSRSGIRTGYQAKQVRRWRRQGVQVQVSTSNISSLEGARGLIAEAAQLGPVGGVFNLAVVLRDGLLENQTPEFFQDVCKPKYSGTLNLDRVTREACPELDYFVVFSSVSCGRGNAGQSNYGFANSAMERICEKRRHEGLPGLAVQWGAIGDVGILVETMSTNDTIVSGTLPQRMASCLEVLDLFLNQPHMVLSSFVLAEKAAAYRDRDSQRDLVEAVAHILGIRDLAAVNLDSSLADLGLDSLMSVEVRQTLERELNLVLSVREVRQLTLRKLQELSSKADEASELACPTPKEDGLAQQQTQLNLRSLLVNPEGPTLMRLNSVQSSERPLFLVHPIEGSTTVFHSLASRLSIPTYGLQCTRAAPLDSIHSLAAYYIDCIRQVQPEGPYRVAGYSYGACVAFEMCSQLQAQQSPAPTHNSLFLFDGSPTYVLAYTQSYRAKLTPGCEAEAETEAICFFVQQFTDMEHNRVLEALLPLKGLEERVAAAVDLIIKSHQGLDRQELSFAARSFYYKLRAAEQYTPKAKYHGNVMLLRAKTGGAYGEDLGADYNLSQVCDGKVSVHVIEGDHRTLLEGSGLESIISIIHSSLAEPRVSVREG

Fatty acid synthase [5] = biological target: T1, Fatty acid synthase; test: inhibition of human FAS-TE enzyme activity – biochemical, endpoint fluorescence intensity, uHTS hits, dose response (AID 624327); type: functional;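 note: fluorescence from hydrolysis of an O-methyl fluorescein acyl ester substrate by the enzyme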
[6] = biological target: T2, Zinc finger protein mex-5 (Caenorhabditis elegans, UniProt Q9XUB2); test: potency of MEX-5 RNA-binding blockers – biochemical, C. elegans, fluorescence polarization, dose response (AID 1960)
T2 sequence (Q9XUB2 whole entry): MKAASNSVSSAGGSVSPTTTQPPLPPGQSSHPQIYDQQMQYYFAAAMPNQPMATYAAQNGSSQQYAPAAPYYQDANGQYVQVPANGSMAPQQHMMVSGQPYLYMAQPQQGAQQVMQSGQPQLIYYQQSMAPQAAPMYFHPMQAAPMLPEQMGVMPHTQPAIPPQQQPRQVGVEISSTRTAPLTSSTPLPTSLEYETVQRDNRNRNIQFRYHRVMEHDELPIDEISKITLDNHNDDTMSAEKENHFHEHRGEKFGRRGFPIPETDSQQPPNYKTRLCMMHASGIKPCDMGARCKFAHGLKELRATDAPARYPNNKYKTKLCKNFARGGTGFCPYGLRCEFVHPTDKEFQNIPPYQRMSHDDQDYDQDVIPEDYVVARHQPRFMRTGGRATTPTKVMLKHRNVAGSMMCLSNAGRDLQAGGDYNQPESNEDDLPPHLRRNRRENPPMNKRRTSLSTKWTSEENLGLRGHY

[7] = biological target: T3, RNA-binding protein pos-1 (Caenorhabditis elegans, UniProt G5EF15); test: disruptors of C. elegans POS-1 RNA interaction – biochemical, fluorescence polarization, dose response (AID 1964);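 note: purified POS-1 fused to maltose binding protein made in E. coli; potency of compounds blocking POS-1 binding to fluorescent RNA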
T3 sequence (G5EF15 whole entry): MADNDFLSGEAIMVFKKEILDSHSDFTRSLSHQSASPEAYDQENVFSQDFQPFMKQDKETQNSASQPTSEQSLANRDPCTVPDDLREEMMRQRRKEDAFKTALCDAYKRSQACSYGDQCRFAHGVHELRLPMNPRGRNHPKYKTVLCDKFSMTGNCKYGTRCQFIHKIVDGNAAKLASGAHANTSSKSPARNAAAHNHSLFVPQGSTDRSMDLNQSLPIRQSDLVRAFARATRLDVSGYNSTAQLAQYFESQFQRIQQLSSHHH

BJ [8] = test: BJ-TERT-LT-ST fibroblast viability loss – cell-based, RAS-independent, luminescence, dose response (AID 1935); type: functional; conditions: Homo sapiens;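 note: BJ fibroblasts immortalized with TERT plus LT and ST oncogenes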
BJ [9] = test: BJ-TERT fibroblast viability loss – cell-based, RAS-independent, luminescence, dose response (AID 1933); type: functional; conditions: Homo sapiens
[10] = DRD fibroblast viability loss – cell-based, non-viral oncogenic, luminescence, dose response (AID 1934); type: functional; conditions: Homo sapiens
BJ [11] = test: cells; type: functional, cell-based; conditions: Homo sapiens
Leucine aminopeptidase = biological target: T4, Leucine aminopeptidase (Plasmodium falciparum 3D7, UniProt Q8IL11); test: P. falciparum M17LAP inhibitors, primary screen, biochemical, fluorogenic H-Leu-NHMec substrate, 1536-well (AID 1619); type: functional
T4 sequence (Q8IL11 whole entry): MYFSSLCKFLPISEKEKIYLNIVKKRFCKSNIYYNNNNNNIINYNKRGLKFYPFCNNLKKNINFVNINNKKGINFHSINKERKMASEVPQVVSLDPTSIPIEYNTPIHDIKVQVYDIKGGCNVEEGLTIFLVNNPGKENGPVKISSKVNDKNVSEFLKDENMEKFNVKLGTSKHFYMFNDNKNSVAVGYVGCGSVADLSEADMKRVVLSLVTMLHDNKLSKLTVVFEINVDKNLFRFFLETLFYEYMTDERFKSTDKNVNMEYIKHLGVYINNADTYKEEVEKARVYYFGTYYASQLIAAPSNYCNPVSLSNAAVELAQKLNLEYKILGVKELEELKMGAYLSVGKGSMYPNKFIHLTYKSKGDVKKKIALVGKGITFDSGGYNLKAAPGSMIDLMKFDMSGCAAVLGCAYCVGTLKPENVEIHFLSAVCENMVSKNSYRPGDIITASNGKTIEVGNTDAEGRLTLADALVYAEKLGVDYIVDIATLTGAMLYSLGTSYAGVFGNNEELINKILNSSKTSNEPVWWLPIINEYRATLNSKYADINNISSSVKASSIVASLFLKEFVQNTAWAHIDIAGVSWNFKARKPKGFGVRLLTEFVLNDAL

Compound: Cc1cccc(C2CC3(CC(C)(C)N=C(S)N3)Oc3cc(O)ccc32)c1 (configuration not stated)
EC50 [1]: 2.44 µM (active) | EC50 [2]: > 150 µM (inactive)

Compound: C[C@@H]1CCCCO[C@@H](CN(C)S(=O)(=O)c2ccc(F)cc2)[C@H](C)CN([C@@H](C)CO)C(=O)c2cc(N(C)C)ccc2O1
AC50 [3]: 7.31 µM (active)

Compound: CN1CCc2nc(SCc3ccccc3Br)c(C#N)cc2C1
IC50 (Fatty acid synthase [4]): 6.01 µM (active) | IC50 (Fatty acid synthase [5]): 7.9 µM (active)

Compound: C[C@@H]1CN([C@@H](C)CO)C(=O)c2ccccc2-c2ccccc2CO[C@@H]1CN(C)S(=O)(=O)Cc1ccccc1
AC50 [3]: 21.9 µM (active)

EC50 [6]: > 300 µM (not active) | EC50 [7]: > 300 µM (not active)
Compound: C/N=C1\S/C(=C\c2cn(CC(=O)OC)c3ccccc23)C(=O)N1C

Compound: COc1cc(C(=O)c2cocc2C(=O)c2ccc3c(c2)OCO3)cc(OC)c1OC
EC50 (BJ [8]): 2.57 µM (inconclusive) | EC50 (BJ [9]): 2.71 µM (active) | EC50 [10]: 1.45 µM (active) | EC50 (BJ [11]): 38.6 µM (inconclusive)

IC50 (Leucine aminopeptidase): 48.6 µM (active)
Compound: CSc1nnc(-c2ccccc2/N=C/c2c(C)nn(-c3ccccc3)c2O)c(O)n1

IC50 (Fatty acid synthase [4]): 4.08 µM (active) | IC50 (Fatty acid synthase [5]): 1.13 µM (active)
Compound: CCN(C(=O)COC(=O)c1cc([N+](=O)[O-])ccc1N1CCOCC1)C1CCCCC1

EC50 [6]: 9.86 µM (active) | EC50 [7]: 15.5 µM (active)
Compound: Cc1nn(C)c(C)c1CN(C)C(=O)C1c2ccccc2Oc2ccccc21

Compound: CC1=NN(C(N)=S)C(=O)C1N=Nc1ccc(S(N)(=O)=O)cc1 (configuration not stated)
EC50 [6]: 8.86 µM (active) | EC50 [7]: 19.7 µM (active)

EC50 [6]: > 300 µM (not active) | EC50 [7]: > 300 µM (not active)
Compound: O=C(O)c1ccc(-n2cccc2)cc1O

EC50 [6]: > 300 µM (not active) | EC50 [7]: > 300 µM (not active)
Compound: CCOC(=O)c1cc2c(=O)n3ccccc3nc2n(C(C)C)/c1=N\C(=O)c1ccncc1

IC50 (Fatty acid synthase [4]): 9.68 µM (active) | IC50 (Fatty acid synthase [5]): 13.9 µM (active)
Compound: O=C(c1cc2cc([N+](=O)[O-])ccc2oc1=O)N1CCN(C2CCCCC2)CC1

IC50 (Fatty acid synthase [4]): 11.2 µM (active) | IC50 (Fatty acid synthase [5]): 12.7 µM (active)
Compound: COC(=O)c1cc(C(=O)Nc2nnc(CC(C)(C)C)s2)cc([N+](=O)[O-])c1
